{
  "source": "patent US20250304633A1",
  "about": "“PEPTIDE HAVING ANTIMICROBIAL ACTIVITY” (CABOSSE NATURALS NV, priority 2022, published 2025)",
  "assay_type_in_all_cases": "cell-based",
  "key": {"tested fungal species": {"system": "tested fungal species", "experiment": "MIC assays, all tested fungal species", "conditions": "all the tested fungal species", "method": "(§1) The antimicrobial potential of the peptide described herein was compared with the activity of, two other AMPs, TcAMP1 and TcAMP2 as discussed in WO1998027805, and antibiotics or fungicides. Comparative MIC assays were carried out against several bacterial and fungal species (Table 1).\n(§2) Peptides according to SEQ ID N° 1, SEQ ID N° 4, and SEQ ID N° 5 were serially diluted in order to create a concentration sequence ranging from 0.39 μg/ml to […].\n(§3) Pantoea, Staphylococcus, and Listeria were cultured in Trypticase Soy Broth (TSY) medium consisting of 1.7% casein peptone, 0.3% soy peptone, 0.25% glucose, 0.5% NaCl, 0.25% K2HPO4 and optionally 1.5% agar. Candida cells were cultured in Yeast Extract Peptone Dextrose (YPD) broth medium consisting of 1% yeast extract, 2% peptone, 2% glucose, and optionally 2% agar. Ceratocystis, Botrytis, Leptosphaeria, Mycosphaerella, Sclerotinia, and Verticillium were cultured in Potato Dextrose Agar (PDA) medium consisting of 2.4% Difco pre-mix broth and optionally 1.5% agar.\nFor the MIC assay bacteria and fungi were grown on agar plates with their respective media. […] The optical density (OD) at 600 nm was measured after one to five days and adjusted to an OD600 of 1. […]\nTo evaluate MICs, 96-well plates were prepared with the test antimicrobial peptides. […] Results were visually evaluated and MICs determined based on growth or no-growth. […]"}, "Mycosphaerella pinodes": {"system": "Mycosphaerella pinodes", "method": "as §1, §2, §3\n(§4) For the MIC assay bacteria and fungi were grown on agar plates with their respective media. Pre-cultures were prepared by inoculating either single bacterial colonies or small pieces of fungi in 5 ml of the respective liquid medium. The optical density (OD) at 600 nm was measured after one to five days and adjusted to an OD600 of 1. This cell suspension was used to prepare 1:500 dilutions, corresponding to approximately 2×10^6 microbial cells per ml.\n(§5) To evaluate MICs, 96-well plates were prepared with the test antimicrobial peptides. Each well contained 100 μl microbial cell culture, 90 μl culture medium, and 10 μl peptide or control at the corresponding dilution. The plates were incubated overnight (ON) at the optimal growth temperature for each tested organism. Results were visually evaluated and MICs determined based on growth or no-growth.\n(§6) MIC assays were conducted in at least two independent replicates and with different peptide starting concentrations."}, "Sclerotinia sclerotiorum": {"system": "Sclerotinia sclerotiorum", "method": "as §1, §2, §3, §4, §5, §6"}, "Pantoea agglomerans": {"system": "Pantoea agglomerans", "method": "as §1, §2, §3, §4, §5, §6"}, "Botrytis cinerea": {"system": "Botrytis cinerea", "method": "as §1, §2, §3, §4, §5, §6"}, "Leptosphaeria maculans": {"system": "Leptosphaeria maculans", "method": "as §1, §2, §3, §4, §5, §6"}, "Verticillium dahliae": {"system": "Verticillium dahliae", "method": "as §1, §2, §3, §4, §5, §6"}, "Ceratosystis paradoxa": {"system": "Ceratosystis paradoxa", "method": "as §1, §2, §3, §4, §5, §6"}, "Listeria monocytogenes": {"system": "Listeria monocytogenes", "method": "as §1, §2, §3, §4, §5, §6"}, "[1]": {"system": "Staphylococcus aureus MRSA", "method": "as §1, §2, §3, §4, §5, §6"}, "Candida albicans": {"system": "Candida albicans", "method": "as §1, §2, §3, §4, §5, §6"}},
  "note": "Ends that are not written are not given here.",
  "data": [
    {"sequence": "YGRKQYERDPRQQYEQCQRRCESEATEEREQEQCEQRCEREYKEQQRQQEEELQRQ (cysteines drawn unpaired) [SEQ ID No 1]", "values": [
      {"measurement": "inhibitory effects in MIC assays", "setting": "tested fungal species", "result": "inhibitory effects against all the tested fungal species"},
      {"measurement": "Minimal inhibitory concentration", "setting": "Mycosphaerella pinodes", "result": 2.8, "unit": "µg/mL"},
      {"measurement": "Minimal inhibitory concentration", "setting": "Sclerotinia sclerotiorum", "result": 10.4, "unit": "µg/mL"},
      {"measurement": "Minimal inhibitory concentration", "setting": "Pantoea agglomerans", "result": 2.5, "unit": "µg/mL"},
      {"measurement": "Minimal inhibitory concentration", "setting": "Botrytis cinerea", "result": 3.5, "unit": "µg/mL"},
      {"measurement": "Minimal inhibitory concentration", "setting": "Leptosphaeria maculans", "result": 12.5, "unit": "µg/mL"},
      {"measurement": "Minimal inhibitory concentration", "setting": "Verticillium dahliae", "result": 3.85, "unit": "µg/mL"},
      {"measurement": "Minimal inhibitory concentration", "setting": "Ceratosystis paradoxa", "result": 1.9, "unit": "µg/mL"},
      {"measurement": "Minimal inhibitory concentration", "setting": "Listeria monocytogenes", "result": 1.6, "unit": "µg/mL"},
      {"measurement": "Minimal inhibitory concentration", "setting": "[1]", "result": 3.2, "unit": "µg/mL"},
      {"measurement": "Minimal inhibitory concentration", "setting": "Candida albicans", "result": 3.85, "unit": "µg/mL"}
    ]}
  ]
}
